# In patent US7417048B2, “Aryl-substituted derivatives of cycloalkyl and branched chain alkyl carboxylic acids useful as antinociceptive drugs for peripheral targets” (priority 2003, dated 2008):
# Tested on: tongue of the test subject
# Assay: Cold sensation threshold on tongue, impregnated filter paper
# Format: in vivo, human
# Conditions: filter paper 1 × 1 cm on tongue, 30 sec, presence or absence of cooling effect
row,Molecule,Cold Sensation Threshold on Tongue [µg]
1,COc1ccc(NC(=O)C2C3C=CC(C3)C2CC(C)C)cc1 (stereo not drawn) [N-(4′-methoxyphenyl)-3-isobutylbicyclo[2.2.1]hept-5-ene-2-carboxamide],4
2,COc1ccc(NC(=O)C2CC(C)CCC2C(C)C)cc1 (stereo not drawn) [N-(4′-methoxyphenyl)-2-isopropyl-5-methylcyclohexanecarboxamide],0.1
3,"Cc1ccc(NC(=O)C(C)(C(C)C)C(C)C)c(C)c1 [N-(2′,4′-dimethylphenyl)-2-isopropyl-2,3-dimethylbutyramide]",1
4,COc1ccc(NC(=O)C2C3C=CC(C3)C2CC(C)C)cc1O (stereo not drawn) [N-(3′-hydroxy-4′-methoxyphenyl)-3-isobutylbicyclo[2.2.1]hept-5-ene-2-carboxamide],8
5,"COc1ccc(NC(=O)C2(C(C)C)CCCCCC2)cc1OC [N-(3′,4′-dimethoxyphenyl)-1-isopropylcycloheptanecarboxamide]",5
6,CC1CCC(C(C)C)C(C(=O)Nc2ccc(O)cc2)C1 (stereo not drawn) [N-(4′-hydroxyphenyl)-2-isopropyl-5-methylcyclohexanecarboxamide],1
7,CCCCC1C2C=CC(C2)C1C(=O)Nc1ccc(OC)c(O)c1 (stereo not drawn) [N-(3′-hydroxy-4′-methoxyphenyl)-3-n-butylbicyclo[2.2.1]hept-5-ene-2-carboxamide],5
8,"Cc1ccc(NC(=O)C2(C(C)C)CCCCCC2)cc1C [N-(3′,4′-dimethylphenyl)-1-isopropylcycloheptanecarboxamide]",15
9,COc1ccc(NC(=O)C2C3CCC(C3)C2C(C)C)cc1 (stereo not drawn) [N-(4′-methoxyphenyl)-3-isopropylbicyclo[2.2.1]heptane-2-carboxamide],15
10,CC1CCC(C(C)C)C(C(=O)Nc2ccc(F)cc2)C1 (stereo not drawn) [N-(4′-fluorophenyl)-2-isopropyl-5-methylcyclohexanecarboxamide],0.5
11,"COc1ccc(NC(=O)C2C3C=CC(C3)C2CC(C)C)c(OC)c1 (stereo not drawn) [N-(2′,4′-dimethoxyphenyl)-3-isobutylbicyclo[2.2.1]hept-5-ene-2-carboxamide]",1
12,CC1CCC(C(C)C)C(C(=O)Nc2cccc3ccccc23)C1 (stereo not drawn) [N-(1′-naphthyl)-2-isopropyl-5-methylcyclohexanecarboxamide],6
13,"Cc1ccc(C)c(NC(=O)C(C)(CC(C)C)C(C)C)c1 (stereo not drawn) [N-(2′,5′-dimethylphenyl)-2-isopropyl-2,4-dimethylpentanamide]",5
14,CC1CCC(C(C)C)C(C(=O)Nc2ccc([N+](=O)[O-])cc2)C1 (stereo not drawn) [N-(4′-nitrophenyl)-2-isopropyl-5-methylcyclohexanecarboxamide],0.3
15,CCOC(=O)c1ccc(NC(=O)C2CC(C)CCC2C(C)C)cc1 (stereo not drawn) [N-(4′-ethoxycarbonylphenyl)-2-isopropyl-5-methylcyclohexanecarboxamide],5
16,"Cc1ccc(NC(=O)C2CC(C)CCC2C(C)C)c(C)c1 (stereo not drawn) [N-(2′,4′-dimethylphenyl)-2-isopropyl-5-methylcyclohexanecarboxamide]",0.1
17,CC1CCC(C(C)C)C(C(=O)Nc2ccc(Cl)cc2)C1 (stereo not drawn) [N-(4′-chlorophenyl)-2-isopropyl-5-methylcyclohexanecarboxamide],8
18,"Cc1ccc(NC(=O)C2(C(C)C)CCCCCC2)c(C)c1 [N-(2′,4′-dimethylphenyl)-1-isopropylcycloheptanecarboxamide]",15

row,Molecule,Cold Sensation Threshold on Tongue [µg]
1,"COc1ccc(NC(=O)C(C)(CC(C)C)C(C)C)cc1 (stereo not drawn) [N-(4′-methoxyphenyl)-2-isopropyl-2,4-dimethylpentanamide]",2
2,CC1CCC(C(C)C)C(C(=O)Nc2ccccc2O)C1 (stereo not drawn) [N-(2′-hydroxyphenyl)-2-isopropyl-5-methylcyclohexanecarboxamide],0.5
3,CC1CCC(C(C)C)C(C(=O)NCc2ccccc2)C1 (stereo not drawn) [N-phenylmethyl-2-isopropyl-5-methylcyclohexanecarboxamide],20
4,"COc1ccc(NC(=O)C2C3CCC(C3)C2(C)C)cc1 (stereo not drawn) [N-(4′-methoxyphenyl)-3,3-dimethylbicyclo[2.2.1]heptane-2-carboxamide]",20
5,CC(C)C1(C(=O)Nc2cccc(O)c2)CCCCCC1 [N-(3′-hydroxyphenyl)-1-isopropylcycloheptanecarboxamide],10
6,Cc1ccc(NC(=O)C2CC(C)CCC2C(C)C)cc1O (stereo not drawn) [N-(3′-hydroxy-4′-methylphenyl)-2-isopropyl-5-methylcyclohexanecarboxamide],0.1
7,COc1ccc(NC(=O)C2(C(C)C)CCCCCC2)c(C)c1 [N-(4′-methoxy-2′-methylphenyl)-1-isopropylcycloheptanecarboxamide],0.2
8,CCC1(C(=O)Nc2ccc(OC)cc2)CCCCCC1C (stereo not drawn) [N-(4′-methoxyphenyl)-1-ethyl-2-methylcycloheptanecarboxamide],6
9,Cc1ccc(NC(=O)C2(C(C)C)CCCCCC2)cc1O [N-(3′-hydroxy-4′-methylphenyl)-1-isopropylcycloheptanecarboxamide],1
10,CC(=O)c1ccc(NC(=O)C2CC(C)CCC2C(C)C)cc1 (stereo not drawn) [N-(4′-acetylphenyl)-2-isopropyl-5-methylcyclohexanecarboxamide],2
11,"COc1ccc(NC(=O)C2CC3CCC2(C)C3(C)C)cc1 (stereo not drawn) [N-(4′-methoxyphenyl)-1,7,7-trimethylbicyclo[2.2.1]heptane-2-carboxamide]",8
12,"Cc1ccc(C)c(NC(=O)C2C3CCC(C3)C2(C)C)c1 (stereo not drawn) [N-(2′,5′-dimethylphenyl)-3,3-dimethylbicyclo[2.2.1]heptane-2-carboxamide]",20
13,CC1CCC(C(C)C)C(C(=O)Nc2ccccc2)C1 (stereo not drawn) [N-phenyl-2-isopropyl-5-methylcyclohexanecarboxamide],20
14,"Cc1ccc(NC(=O)C(C)(C(C)C)C(C)C)cc1C [N-(3′,4′-dimethylphenyl)-2-isopropyl-2,3-dimethylbutyramide]",3
15,"COc1ccc(NC(=O)C(C)(C(C)C)C(C)C)cc1 [N-(4′-methoxyphenyl)-2-isopropyl-2,3-dimethylbutyramide]",0.5
16,CCCCC1C2C=CC(C2)C1C(=O)Nc1ccc(OC)cc1C (stereo not drawn) [N-(2′-methyl-4′-methoxyphenyl)-3-n-butylbicyclo[2.2.1]hept-5-ene-2-carboxamide],1
17,COc1ccc(NC(=O)C2C3C=CC(C3)C2CC(C)C)c(C)c1 (stereo not drawn) [N-(2′-methyl-4′-methoxyphenyl)-3-isobutylbicyclo[2.2.1]hept-5-ene-2-carboxamide],1

# Tested on: not listed separately
# Assay: Threshold cooling effect of p-menthane carboxylic acid esters
# Format: in vivo, human
# Conditions: p-menthane-COOR esters
# Description: Neurophysiological and Molecular Mechanisms of Drug Action. The procedures described previously are used in drug screening. Experimentally there are additional methods to identify peripheral antinociceptive pharmacophore-compounds on sensory nerve endings. TRP receptors are present in sensory neurons. At the molecular level, the interactions of these peripheral antinociceptive pharmacophore-compounds with various TRP receptors can be characterized. The methods for such receptor studies were described by Laus et al. (Prostate tumor nucleotide compositions and methods of detection thereof. U.S. Pat. No. 6,194,152 B1, Feb. 27, 2001), and by Bevan et al. (Vanilloid receptor-related nucleic acids and polypeptides. U.S. 2003/0157633 A1, Aug. 21, 2003) and Julius et al. (Methods of modulating cold sensory perception. U.S. 2003/0219834 A1, Nov. 27, 2003), herein incorporated by reference. In the patent by Laus et al. it is noted that activation of trp-p8 by specific agonists of this receptor may also be utilized for the treatment of prostate disorders such prostate neoplasia. The use of peripheral antinociceptive pharmacophore-compounds of this discovery for prostate disorders is also contemplated in the present patent application. Identification of Pharmacophore. […] Based on this information, the pharmacophore precursor was selected and then the -ZR″ moiety was placed on the molecule to form the peripheral antinociceptive pharmacophore compounds of this discovery with desired pharmacokinetics and adequate delivery of pharmacophore to the target.
row,Molecule,Threshold Cooling Effect [µg]
1,CC1CCC(C(C)C)C(C(=O)OCC(=O)O)C1 (stereo not drawn) [glycollic acid],15
2,"OCCCO [propan-1,3-diol]",7
3,CC(=O)OCCOC(=O)C1CC(C)CCC1C(C)C (stereo not drawn) [2-acetoxoyethanol],33
4,CCOC(=O)C(C)O (stereo not drawn) [ethyl lactate],50
5,CC(O)CO (stereo not drawn) [propylene glycol],1.4
6,hexylene glycol,8
7,CC(C)(O)C(=O)O [2-hydroxy-2-methylpropanoic acid],20
8,"OCCCCO [butan-1,4-diol]",12
9,OCC(O)CO [glycerol],1.2
10,CC1(C)OCC(CO)O1 (stereo not drawn),11
11,OCCOCCOCCO [triethylene glycol],5
12,"CC(O)C(C)O (stereo not drawn) [butan-2,3-diol]",3
13,OC[C@@H](O)[C@@H](O)[C@H](O)[C@@H](O)CO [sorbitol],50
14,"OCC#CCO [butyn-1,4-diol]",6
15,OCCOCCO [diethylene glycol],1
16,"OC1CCCCC1O (stereo not drawn) [cyclohexan-1,2-diol]",4
17,OCCO [ethylene glycol],1.5
18,"Cc1cc(O)cc(O)c1 [3,5-dihydroxytoluene]",15
19,CC(O)C(=O)O (stereo not drawn) [lactic acid],8
